Experimental data from patent publication US20220298213A1, “IN VIVO ENGINEERED CEREBLON PROTEIN” (Vividion Therapeutics, Inc., priority 2018, published 2022).

Experiments:
Test in all cases: Inhibition of probe labeling at screening concentration (Table 1)
Format in all cases: binding
[1] = system: PRTN_A; settings: 500 μM
Procedure: (§1) Cells were resuspended in cold PBS on ice and sonicated with a probe sonicator to achieve lysis. 200 μL of lysate containing 5 mg/ml proteome was treated with 2 μL of 100× compound stock in a 2-mL deep-well plate. The treated lysate was subsequently incubate at 25° C. for 1 hr with shaking at 600 rpm. The treated lysate was further incubated with 2 μL of 10 mM desthiobiotin iodoacetamide probe at 25° C. for 1 hr with shaking at 600 rpm. Next, the lysate was further treat with 20 μL of solution of PBS containing 11 mM MgSO4 and 2.5% Turbonuclease stock and incubated at 25° C. for 20 minutes with shaking at 600 rpm. 1.7 mL ice-cold acetone was added to each well and incubated at −20° C. for 2 hr, followed by max speed (4200 rpm) spin for 45 min. Acetone was then decanted and the plates were blotted to remove acetone. The plates were then dried in open air for 20 minutes. After drying, the plates were then covered with foil seal and stored at −80° C. overnight.

[2] = system: PRTN_B; settings: 500 μM
Procedure: as §1

[3] = system: PRTN_C; settings: 500 μM
Procedure: as §1

[4] = system: PRTN_D; settings: 500 μM
Procedure: as §1

[5] = system: PRTN_E; settings: 500 μM
Procedure: as §1

[6] = system: PRTN_F; settings: 500 μM
Procedure: as §1

[7] = system: PRTN_G; settings: 500 μM
Procedure: as §1

[8] = system: PRTN_H; settings: 500 μM
Procedure: as §1

[9] = system: PRTN_I; settings: 500 μM
Procedure: as §1

[10] = system: PRTN_J; settings: 500 μM
Procedure: as §1

[11] = system: PRTN_K; settings: 500 μM
Procedure: as §1

[12] = biological target: CRBN-287 (Homo sapiens, UniProt Q96SW2); parameters: endogenous in cells; host or cells: cell lysate; settings: native folded protein, read-out: Percentage inhibition of probe labeling, CRBN_287
CRBN-287, sequence (Q96SW2 whole entry): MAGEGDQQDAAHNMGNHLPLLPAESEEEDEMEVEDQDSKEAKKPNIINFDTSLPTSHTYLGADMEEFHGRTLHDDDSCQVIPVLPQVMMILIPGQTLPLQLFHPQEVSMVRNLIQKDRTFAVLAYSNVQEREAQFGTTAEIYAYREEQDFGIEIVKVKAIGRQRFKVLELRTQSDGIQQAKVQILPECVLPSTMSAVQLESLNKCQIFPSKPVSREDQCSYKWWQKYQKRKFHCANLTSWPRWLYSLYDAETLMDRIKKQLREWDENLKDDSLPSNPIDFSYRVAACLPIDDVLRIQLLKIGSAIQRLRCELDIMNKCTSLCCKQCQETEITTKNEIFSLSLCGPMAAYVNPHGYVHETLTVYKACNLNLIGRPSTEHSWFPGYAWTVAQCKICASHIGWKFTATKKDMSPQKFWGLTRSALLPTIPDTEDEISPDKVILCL
Procedure: as §1

[13] = biological target: CRBN-318 (Homo sapiens, UniProt Q96SW2); parameters: endogenous in cells; host or cells: cell lysate; settings: native folded protein, read-out: Percentage inhibition of probe labeling, CRBN_318
CRBN-318, sequence (Q96SW2 whole entry): as above
Procedure: as §1

Compound | inhibition at 500 µM [12] [%] | inhibition at 500 µM [13] [%] | Percentage inhibition of probe labeling, PRTN_A [1] [%] | Percentage inhibition of probe labeling, PRTN_B [2] [%] | Percentage inhibition of probe labeling, PRTN_C [3] [%] | Percentage inhibition of probe labeling, PRTN_D [4] [%] | Percentage inhibition of probe labeling, PRTN_E [5] [%] | Percentage inhibition of probe labeling, PRTN_F [6] [%] | Percentage inhibition of probe labeling, PRTN_G [7] [%] | Percentage inhibition of probe labeling, PRTN_H [8] [%] | Percentage inhibition of probe labeling, PRTN_I [9] [%] | Percentage inhibition of probe labeling, PRTN_J [10] [%] | Percentage inhibition of probe labeling, PRTN_K [11] [%]
CCc1ccccc1-c1cccc(NC2CCN(C(=O)/C=C/CC(C)C)CC2)c1 | 98 | 96 | 10 | 3 | 14 | 17 | 12 | 2 | 13 | 4 | 14 | 11 | 22
C=CC(=O)N1CCC(Nc2cc(C(N)=O)cc(-c3ccccc3CC)c2)CC1 | 97 | 98 | −2 | 0 | 19 | 18 | 8 | 4 | 6 | 6 | −1 | 7 | 12
C=CC(=O)N1CCC(Cc2cccc(-c3ccccc3NC(C)=O)c2)CC1 | 69 | 71 | 8 | 8 | 3 | 8 | 9 | 7 | 12 | 2 | −1 | 21 | 20

Now from value to compound, other results behind:

inhibition at 500 µM [12] [%] | inhibition at 500 µM [13] [%] | Compound | Percentage inhibition of probe labeling, PRTN_A [1] [%] | Percentage inhibition of probe labeling, PRTN_B [2] [%] | Percentage inhibition of probe labeling, PRTN_C [3] [%] | Percentage inhibition of probe labeling, PRTN_D [4] [%] | Percentage inhibition of probe labeling, PRTN_E [5] [%] | Percentage inhibition of probe labeling, PRTN_F [6] [%] | Percentage inhibition of probe labeling, PRTN_G [7] [%] | Percentage inhibition of probe labeling, PRTN_H [8] [%] | Percentage inhibition of probe labeling, PRTN_I [9] [%] | Percentage inhibition of probe labeling, PRTN_J [10] [%] | Percentage inhibition of probe labeling, PRTN_K [11] [%]
94 | 94 | C=CC(=O)N1CCC(Oc2cc(C)cc(-c3ccccc3OC)c2)CC1 | 7 | 2 | 18 | 9 | 11 | 6 | 13 | 9 | 7 | 6 | 13
72 | 76 | C=CC(=O)N1CCC(Oc2cc(C)cc(-c3ccccc3)c2)CC1 | 5 | −1 | 15 | 2 | 2 | −12 | −8 | −5 | 0 | −2 | 17
